Data taken from ChEMBL document CHEMBL1158961, “Picrasinoside H, a new quassinoid glucoside, and related compounds from the stem wood of Picrasma ailanthoides” (1991).

How the values were obtained:
Type in all cases: functional
Details in all cases: read-out: ED50 (the source's name)
[1] = Cytotoxicity against human RPMI cells
A549 = test: Cytotoxicity against human A549 cells
HCT-8 = test: Cytotoxicity against human HCT8 cells
KB = test: Cytotoxicity against human KB cells
P388 = test: Cytotoxicity against mouse P388 cells
TE-671 = test: Cytotoxicity against human TE671 cells

Measured: EC50

COC1=C[C@@H](C)[C@@H]2C[C@H]3O[C@@H](O[C@@H]4O[C@H](CO)[C@@H](O)[C@H](O)[C@H]4O)C[C@H]4C(C)=C(OC)C(=O)[C@H]([C@@]2(C)C1=O)[C@@]34C [PICRASINOSIDE B]
≤ 4 µg/mL: all assays above

COC1=C[C@@H](C)C2C[C@H]3O[C@@H](O[C@@H]4O[C@H](CO)[C@@H](O)[C@H](O)[C@H]4O)C[C@H]4[C@@H](C)[C@@H]5OCO[C@H]5[C@@H]([C@@]34C)[C@@]2(C)C1=O (stereo not given in full) [PICRASINOSIDE C]
≤ 4 µg/mL: all assays above

COC1=C[C@@H](C)[C@@H]2C[C@H]3O[C@@H](O[C@@H]4O[C@H](CO)[C@@H](O)[C@H](O)[C@H]4O)C[C@H]4[C@@H](C)[C@H](OC)[C@@H](OC(C)=O)[C@H]([C@@]2(C)C1=O)[C@@]34C [PICRASINOSIDE D]
≤ 4 µg/mL: all assays above

COC1=C[C@@H](C)[C@@H]2C[C@H]3O[C@@H](O[C@@H]4O[C@H](CO)[C@@H](O)[C@H](O)[C@H]4O)C[C@H]4[C@](C)(O)[C@H](OC)[C@@H](OC(C)=O)[C@H]([C@@]2(C)C1=O)[C@@]34C [PICRASINOSIDE E]
≤ 4 µg/mL: all assays above

COC1=C[C@@H](C)[C@@H]2C[C@H]3O[C@@H](O[C@@H]4O[C@H](CO)[C@@H](O)[C@H](O)[C@H]4O)C[C@H]4[C@](C)(O)[C@H](OC)[C@@H](O)[C@H]([C@@]2(C)C1=O)[C@@]34C [PICRASINOSIDE G]
not listed: TE-671
≤ 4 µg/mL: all other assays above

COC1=C[C@@H](C)[C@@H]2C[C@H]3O[C@@H](O[C@@H]4O[C@H](CO)[C@@H](O)[C@H](O)[C@H]4O)C[C@H]4[C@](C)(OC(C)=O)[C@@H]5OCO[C@H]5[C@H]([C@@]2(C)C1=O)[C@@]34C [PICRASINOSIDE H]
≤ 4 µg/mL: all assays above
